# Measurements published in US6747027B1, “Thiol sulfonamide metalloprotease inhibitors” (Pharmacia Corporation, priority 1996, dated 2004).
# Key:
# recombinant human MMP-13 = target: T1, recombinant human MMP-13 (Homo sapiens, UniProt P45452); assay: In vitro metalloprotease inhibition, fluorogenic peptide assay (MMP-13); assay type: biochemical; conditions: recombinant human MMP-13, APMA activated; fluorogenic MCA peptide substrate 4 uM; pH 7.5, room temperature
# T1 construct: made in house
# Protocol: (§1) Certain of the compounds prepared in the manner described in Examples 1 to 223 were tested for activity by an in vitro assay. Following the procedures of Knight et al., FEBS Lett. 296(3):263 (1992). Briefly, 4-aminophenylmercuric acetate (APMA) or trypsin activated MMPs were incubated with various concentrations of the inhibitor compound at room temperature for 5 minutes (0.02% 2-mercapto-ethanol added to buffer for thiol compounds with 5 minutes or overnight incubation). More specifically, recombinant human MMP-13 and MMP-1 enzymes were prepared in laboratories of the inventors' employer. MMP-13 was expressed in baculovirus as a proenzyme, and purified first over a heparin agarose column and then over a chelating zinc chloride column. The proenzyme was activated by APMA for use in the assay. MMP-1 expressed in transfected HT-1080 was provided by Dr. Howard Welgus of Washington University, St. Louis, Mo. The enzyme was also activated using APMA and was then purified over a hydroxamic acid column.
# (§2) The enzyme substrate is a methoxycoumarin-containing polypeptide having the following sequence:
# (§3) MCA-ProLeuGlyLeuDpaAlaArgNH^2, wherein MCA is methoxycoumarin and Dpa is 3-(2,4-dinitrophenyl)-L-2,3-diaminopropionyl alanine. This substrate is commercially available from Baychem as product M-1895.
# (§4) The buffer used for assays contained 100 mM Tris-HCl, 100 mM NaCl, 10 mM CaCl2 and 0.05 percent polyethyleneglycol(23) lauryl ether at a pH value of 7.5. Assays were carried out at room temperature, and dimethyl sulfoxide (DMSO) at a final concentration of 1 percent was used to dissolve inhibitor compound.
# (§5) The assayed inhibitor compound in DMSO/buffer solution was compared to an equal amount of DMSO/buffer with no inhibitor as control using microfluor™ white plates (Dynatech). The inhibitor or control solution was maintained in the plate for 10 minutes and the substrate was added to provide a final concentration of 4 uM.
# (§6) In the absence of inhibitor activity, a fluorogenic peptide is cleaved at the gly-leu peptide bond, separating the highly fluorogenic peptide from a 2.4-dinitrophenyl quencher, resulting in an increase of fluorescence intensity (excitation at 328 nm/emmision at 415 nm). Inhibition was measured as a reduction in fluorescent intensity as a function of inhibitor concentration, using a Perkin Elmer L550 plate reader. The IC50 values were calculated from those values. The results are set forth in the Inhibition Table below, reported in terms of IC50 to three significant figures.
# recombinant human MMP-1 = target: T2, recombinant human MMP-1 (Homo sapiens, UniProt P03956); assay: In vitro metalloprotease inhibition, fluorogenic peptide assay (MMP-1); assay type: biochemical; conditions: recombinant human MMP-1, APMA activated; fluorogenic MCA peptide substrate 4 uM; pH 7.5, room temperature
# T2 construct: made in house; host or cells: transfected HT-1080 cells (provided by Dr. Howard Welgus, Washington University)
# T2 sequence (P03956 100-469): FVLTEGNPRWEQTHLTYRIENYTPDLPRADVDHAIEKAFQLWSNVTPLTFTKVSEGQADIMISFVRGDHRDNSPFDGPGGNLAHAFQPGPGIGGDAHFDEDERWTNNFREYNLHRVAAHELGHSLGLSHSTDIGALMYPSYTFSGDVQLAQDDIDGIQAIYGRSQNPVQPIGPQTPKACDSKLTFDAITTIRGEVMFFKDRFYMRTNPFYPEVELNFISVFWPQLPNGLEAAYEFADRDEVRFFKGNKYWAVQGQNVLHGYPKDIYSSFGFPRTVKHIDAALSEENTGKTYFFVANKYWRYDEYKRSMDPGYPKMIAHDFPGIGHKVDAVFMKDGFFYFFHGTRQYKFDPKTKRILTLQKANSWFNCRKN
# Protocol: as §1, §2, §3, §4, §5, §6
IC50 (recombinant human MMP-13),IC50 (recombinant human MMP-1),Compound
200 nM,6000 nM,COC(=O)[C@H](CSSC[C@H](NS(=O)(=O)c1ccc(OC)cc1)C(=O)OC)NS(=O)(=O)c1ccc(OC)cc1 [Example 58]
0.7 nM,400 nM,CCCCOc1ccc(S(=O)(=O)N(Cc2ccncc2)[C@@H](CS)C(N)=O)cc1 [Example 175]
3000 nM,> 10000 nM,CCCCOc1ccc(S(=O)(=O)N[C@@H](CS)C(=O)O)cc1 [Example 181]
9000 nM,–,"C[C@H](CS)NS(=O)(=O)c1ccc(Br)s1 [Example 85, N-(2-mercapto-1R-methylethyl)-5-bromo-2-thiophenesulfonamide]"
220 nM,> 10000 nM,CC(=O)SC[C@@H](C)N(CCN1CCOCC1)S(=O)(=O)c1ccc(Oc2ccc(CCC(=O)OC(C)(C)C)cc2)cc1 [Example 115]
1320 nM,–,CCCCOc1ccc(S(=O)(=O)N[C@@H](CS)C(=O)O)cc1 [Example 210]
< 0.1 nM,70 nM,COc1ccc(-c2ccc(S(=O)(=O)N(CCN3CCOCC3)[C@@H](CS)C(N)=O)cc2)cc1 [Example 131]
190 nM,> 10000 nM,CCCCOc1ccc(S(=O)(=O)N(CCC(C)C)[C@@H](CS)C(N)=O)cc1 [Example 208]
3000 nM,–,C[C@H](CS)NS(=O)(=O)c1cc(Br)c(Cl)s1 [Example 152]
17.5 nM,300 nM,"COc1ccc(S(=O)(=O)N(Cc2cccnc2)[C@H](C)CS)cc1 [Example 49, N-(2-Mercapto-1-R-methylethyl)-N-(3-pyridylmethyl)-4-methoxybenzenesulfonamide]"
1700 nM,–,"C[C@H](CS)NS(=O)(=O)c1ccc(Cl)s1 [Example 86, N-(2-mercapto-1R-methylethyl)-5-chloro-2-thiophenesulfonamide]"
1150 nM,–,N-(2-mercapto-1R-methylethyl)-2-napthylenesulfonamide [Example 83]
1.1 nM,5000 nM,CCCCCc1ccc(S(=O)(=O)N(CCN2CCOCC2)[C@@H](CS)C(N)=O)cc1 [Example 128]
115 nM,> 10000 nM,COc1cccc(-c2ccc(S(=O)(=O)N(C)[C@H](C)CS)cc2)c1 [Example 123]
600 nM,–,"C[C@H](CS)NS(=O)(=O)c1ccc2oc3ccccc3c2c1 [Example 90, N-(2-mercapto-1R-methylethyl)-2-dibenzofuransulfonamide]"
6500 nM,–,"C[C@H](CS)NS(=O)(=O)c1ccc(F)c(F)c1 [Example 81, N-(2-mercapto-1R-methylethyl)-3,4-difluoro-benzenesulfonamide]"
550 nM,–,COc1ccc(S(=O)(=O)N(Cc2ccccc2)CC(C)S)cc1 (stereo not shown) [Example 10]
> 10000 nM,–,"C[C@H](CS)NS(=O)(=O)c1ccc(C(C)(C)C)cc1 [Example 74, N-(2-mercapto-1R-methylethyl)-4-(t-butyl)benzenesulfonamide]"
2300 nM,–,"CC(C)c1ccc(S(=O)(=O)N[C@H](C)CS)cc1 [Example 72, N-(2-mercapto-1R-methylethyl)-4-isopropylbenzenesulfonamide]"
> 10000 nM,–,COc1ccc(S(=O)(=O)N(CCCSC(C)=O)Cc2ccccc2)cc1 [Example 98]
900 nM,–,"C[C@H](CS)NS(=O)(=O)c1ccc(Cl)cc1 [Example 64, N-(2-mercapto-1R-methylethyl)-4-chlorobenzenesulfonamide]"
4000 nM,–,COc1ccc(S(=O)(=O)N(CCCS)Cc2ccccc2)cc1 [Example 97]
> 10000 nM,–,C[C@H](CS)NS(=O)(=O)c1ccc(Br)cc1OC(F)(F)F [Example 204]

IC50 (recombinant human MMP-13),IC50 (recombinant human MMP-1),Compound
8500 nM,–,"C[C@H](CS)NS(=O)(=O)c1sc(Br)cc1Br [Example 87, N-(2-mercapto-1R-methylethyl)-3,5-dibromo-2-thiophenesulfonamide]"
9000 nM,–,CSc1nccc(S(=O)(=O)N[C@H](C)CS)n1 [Example 150]
> 10000 nM,–,C[C@H](CS)NS(=O)(=O)c1ccccc1C(F)(F)F [Example 196]
> 10000 nM,–,"CC(C)c1cc(C(C)C)c(S(=O)(=O)N[C@H](C)CS)c(C(C)C)c1 [Example 80, N-(2-mercapto-1R-methylethyl)-2,4,6-triisopropyl-benzenesulfonamide]"
> 10000 nM,–,CCCCOc1cc(C(C)(C)CC(C)(C)C)ccc1S(=O)(=O)N[C@H](C)CS [Example 207]
500 nM,–,C[C@H](CS)NS(=O)(=O)c1ccc(Oc2cccc(Cl)c2C#N)cc1 [Example 108]
464 nM,–,CCc1cc(Br)ccc1S(=O)(=O)N[C@H](C)CS [Example 195]
> 10000 nM,–,C[C@H](CS)NS(=O)(=O)c1cccc2cccnc12 [Example 206]
> 10000 nM,–,C[C@H](CS)NS(=O)(=O)c1cc(C(F)(F)F)n(C)n1 [Example 149]
> 10000 nM,–,C[C@H](CS)NS(=O)(=O)c1ccc(CNC(=O)c2ccccc2)s1 [Example 146]
365 nM,–,"C[C@H](CS)NS(=O)(=O)c1ccc(-c2ccon2)s1 [Example 88, N-(2-mercapto-1R-methylethyl)-5-(isoxazol-3-yl)-2-thiophenesulfonamide]"
2300 nM,–,COC(=O)c1ccccc1S(=O)(=O)N[C@H](C)CS [Example 198]
> 10000 nM,–,C[C@H](CS)NS(=O)(=O)c1ccc(CNC(=O)c2ccc(Cl)cc2)s1 [Example 153]
38 nM,–,"C[C@H](CS)NS(=O)(=O)c1ccc(I)cc1 [Example 66, N-(2-mercapto-1R-methylethyl)-4-iodobenzenesulfonamide]"
> 10000 nM,–,COc1ccc(S(=O)(=O)N[C@H](C)CS)c([N+](=O)[O-])c1 [Example 109]
570 nM,–,"CCc1ccc(S(=O)(=O)N[C@H](C)CS)cc1 [Example 67, N-(2-mercapto-1R-methylethyl)-4-ethylbenzenesulfonamide]"
3500 nM,–,CCCCCCCCCCCCCCCCOc1ccc(S(=O)(=O)N[C@H](C)CS)cc1 [Example 105]
> 10000 nM,–,"Cc1cc(C)c(S(=O)(=O)N[C@H](C)CS)c(C)c1 [Example 79, N-(2-mercapto-1R-methylethyl)-2,4,6-trimethyl-benzenesulfonamide]"
> 10000 nM,–,C[C@H](CS)NS(=O)(=O)c1ccc(C(F)(F)F)cn1 [Example 148]
> 10000 nM,–,"C[C@H](CS)NS(=O)(=O)c1ccccc1 (single isomer, unassigned) [Example 151]"
2100 nM,–,"C[C@H](CS)NS(=O)(=O)c1ccc(C(F)(F)F)cc1 [Example 73, N-(2-mercapto-1R-methylethyl)-4-(trifluoromethyl)-benzenesulfonamide]"
> 10000 nM,–,C[C@H](CS)NS(=O)(=O)c1cn(C)cn1 [Example 214]
> 10000 nM,–,C[C@H](CS)NS(=O)(=O)c1ccc(OCC(F)(F)F)cc1OCC(F)(F)F [Example 104]

Compound,IC50 (recombinant human MMP-13),IC50 (recombinant human MMP-1)
"CCCCCN([C@H](C)CS)S(=O)(=O)c1ccc(OCCCC)cc1 [Example 48C, N-(2-Mercapto-1R-methylethyl)-N-pentyl-4-(n-butoxy)benzenesulfonamide]",45 nM,> 10000 nM
CCCCOc1ccc(S(=O)(=O)N(C)[C@H](C)CSSC[C@@H](C)N(C)S(=O)(=O)c2ccc(OCCCC)cc2)cc1 [Example 18],390 nM,> 10000 nM
N-(2-mercapto-1R-methylethyl)-2-(trifluoromethyoxy)-benzenesulfonamide [Example 77],> 10000 nM,–
N-(2-mercapto-1R-methylethyl)-4-(n-butyl)benzenesulfonamide [Example 69],175 nM,–
